{"source": "patent US9850293B2", "about": "“Targeting trastuzumab-resistant HER2+ breast cancer with a HER3-targeting nanoparticle” (priority 2014, dated 2017)", "key": {"MDA-MB-435 (HER2+)": {"test_system": "MDA-MB-435 (HER2+)", "experiment": "Targeted toxicity, cell survival by MTT assay", "format": "cell-based, human", "details": "Dox 0.5 μM; HerPBK10 0.1 μM; day 3", "description": "(§1) FIG. 7 illustrates targeted toxicity. […] Cell titer was determined by metabolic (i.e. MTT) assay. FIG. 7 upper panel illustrates the effect of HerDox on MDA-MB-231 (HER2−) and MDA-MB-435 (HER2+) cell survival. Relative surviving cell numbers are represented as a % of corresponding untreated cells. […] Relative survival (as % of untreated cells) is shown for Day 3 of treatment.\nFIG. 8 illustrates receptor specificity. MDA-MB-435 (HER2+) cells were incubated with free ligand (eHRG) at 10× molar excess of HerDox for one hour at 4° C. Media was aspirated to remove free eHRG and fresh media containing HerDox (0.5 μM) was added to cells. Cell survival was measured by MTT assay and represented as a % of relative untreated cell numbers.\n(§2) N=3. […] Bar, about 4 μm. […] (E) compares HerDox and Dox on off-target tissue. […] Green fluorescence in nuclei indicates apoptosis (positive TUNEL stain).\n(§3) By three days, HerDox reduced HER2+ cell numbers by over 75% whereas HER2− cell survival was unaffected (FIG. 7). […] These findings emphasize the importance of targeting by showing that the untargeted drug affects nontarget (i.e. HER2−) cells. […] To test receptor targeting, the inventors used free heregulin ligand (Her or eHRG) as a competitive inhibitor. […] As a final in vitro challenge, the inventors tested whether HerDox induces toxicity specifically to HER2+ cells in a mixed culture of HER2+ and HER2− breast cancer cells. To do this, the inventors produced a HER2− cell line tagged with green fluorescent protein (GFP) for cell identification in the mixed culture (FIG. 9-A). […] Altogether, these findings indicate that HerDox has the capacity to preferentially target toxicity to HER2+ cells. […] In serum-containing media, no such loss from HerDox is detectable. […] Co-migration of HerPBK10 bands further verified that the conjugates remained intact in the cell media."}, "MDA-MB-231 (HER2−)": {"test_system": "MDA-MB-231 (HER2−)", "experiment": "Targeted toxicity, cell survival by MTT assay", "format": "cell-based, human", "details": "0.5 μM with respect to Dox; HerPBK10 0.1 μM; day 3", "description": "as §1, §2, §3"}, "[1]": {"test_system": "HER2+ tumors (MDA-MB-435)", "experiment": "In vivo tumor toxicity (tumor growth)", "parameters": "species or system mouse", "details": "0.004 mg/kg with respect to Dox, daily tail vein injections for 7 days"}, "MDA-MB-435 cells": {"test_system": "MDA-MB-435 cells", "experiment": "HerPBK10 binding to cells in human serum (ELISA)", "details": "1.2 μg/well, sera of 5 HER2+ patients and age-matched controls", "description": "FIG. 16 illustrates HerPBK10 binding to MDA-MB-435 cells in human serum from HER2+ or HER2− breast cancer patients. Cells were treated with HerPBK10 (1.2 μg/well) in media containing human serum from each of 5 HER2+ breast cancer patients or age matched HER2− controls, both obtained pre-chemotherapy treatment. Cells were processed for ELISA using an antibody directed at HerPBK10. Control (C) wells receiving HerPBK10 in media containing bovine serum without or with 100× molar excess competitive ligand inhibitor (+Her) are indicated by open bars. Patient sera were provided by the WCRI tissue bank at Cedars-Sinai Medical Center. N=3 wells per treatment.\nTo determine whether HerPBK10 competes with circulating ligand that may be present in serum, the inventors tested HerPBK10 binding to HER2+ breast cancer cells in human serum obtained from HER2+ patients. The Women's Cancer Research Institute at Cedars-Sinai occasionally acquires limited quantities of patient serum, of which sera from HER2+ patients comprises an even smaller minority. […] Here, the inventors replaced the bovine serum in the routine culturing media with the human serum obtained from the acquired patient samples to assess whether the human serum, especially from HER2+ patients, inhibits cell binding. […]"}, "[2]": {"molecular_target": "T1, HER3 (human ErbB3 extracellular domain) (Homo sapiens, UniProt P21860)", "T1 construct": "immobilized peptide containing the extracellular domain of human HER3; purchased Prospec", "experiment": "ELISA of HerPBK10 binding to immobilized HER3", "source_text": "(§4) Un, no HerPBK10. […] HerPBK10 binding to HER3 is not inhibited by patient serum.\n(§5) Binding was also not inhibited by a HER4 peptide or betacellulin (which blocks HER4) (FIG. 26-B)."}, "HER2+ cells": {"test_system": "HER2+ cells", "experiment": "ELISA of HerPBK10 binding to HER2+ cells with competitive inhibitors", "source_text": "as §4, §5"}, "[3]": {"experiment": "Neutralizing antibody formation after repeat dosing", "format": "in vivo, mouse", "details": "repeat dosing at therapeutic and 10-fold higher levels, immunocompetent mice", "source_text": "Therefore, receptor binding is not inhibited by patient sera."}, "HER2+ tumor": {"test_system": "HER2+ tumor", "experiment": "Biodistribution of labeled HerPBK10, Tz and BSA", "format": "in vivo, mouse", "details": "tail vein, four hours after injection", "description": "(§6) (A) compares biodistribution and intracellular trafficking of HerPBK10 and Tz.\nFluorescently-labeled HerPBK10 was prepared to assess its bio-distribution and cell uptake in comparison to labeled Tz. Equivalent doses of each reagent were injected into the tail veins of HER2+ tumor bearing mice. Tissues were harvested at four hours after injection for imaging. Both reagents were compared to a labeled non-targeted protein, BSA."}, "HER2+ MDA-MB-435 cells": {"test_system": "HER2+ MDA-MB-435 cells", "experiment": "Cell uptake (fluorescence confocal microscopy)", "format": "cell-based, human", "details": "after cell surface clustering", "description": "as §6\nThe uptake in HER2+ MDA-MB-435 cells were also evaluated."}, "[4]": {"test_system": "primary tumor cells from a surgical specimen of a HER2+ patient", "experiment": "Binding to primary human tumor cells", "details": "elevated HER3, very low HER2", "description": "(§7) N=3. *, p<0.05 compared to parental. […] N=3. *, p<0.05 compared to parental.\n(§8) Parental lines were exposed to Tz for 24 hours and then measured cell surface HER3 levels in comparison to non-treated parental cells. […] As a means of evaluating whether the nanoparticles described herein are capable of recognizing HER3 on human tissue, breast tumor tissue was obtained from a surgical specimen of a HER2+ patient and examined whether HerPBK10 could bind this tissue via HER3."}, "[5]": {"test_system": "HER3 on 4T1 mouse mammary tumor cells", "experiment": "Binding of HerPBK10 to mouse mammary tumor cells", "source_text": "(A) is an amino acid sequence alignment of domains I-II (heregulin-binding domain) of human (SEQ ID NO:13) and mouse HER3 (SEQ ID NO:14). (B) compares relative HER3 levels on different cell lines, detected by ELISA (without permeabilization) using an anti-HER3 antibody that cross-reacts with both human and mouse HER3 (1B2E; Cell Signaling Technologies). […] N=3. *, p<0.05 compared to HerPBK10 alone.\nMouse 4T1 cells, obtained from a BALB/c mouse mammary tumor, are triple-negative and have been used as a syngeneic TNBC model in BALB/c mice. […] The receptor-specific binding of HerPBK10 to mouse HER3 reflects the high level of amino acid sequence identity between mouse and human HER3: 91% identity for the entire protein and 94% in the heregulin-binding region (extracellular domains I and II) (FIG. 32-A). […] Importantly, human BT-549 cells, which are also derived from a TNBC, display elevated HER3 on the cell surface (FIG. 32-B) and provide an additional TNBC cell line to target."}, "[6]": {"test_system": "human cardiosphere-derived cells (CDCs)", "experiment": "Human CDC viability", "details": "escalating concentrations, 48 hour exposure", "description": "Control groups received saline or HerPBK10 at equivalent concentration to HerMn. Treatments began at ˜200 mm^3 average tumor volume. Tumor volumes were measured before (day 1), during (day 3), and after (days 8, 15, and 22) injections of reagents. N=8-10 tumors/group. *p<0.05 (one-way ANOVA). […] N=3 per conc, from 3 separate experiments.\nTo assess translatability, the viability of human cardiosphere-derived cells (CDCs) in the presence of HerGa and/or HerMn was examined."}, "[7]": {"test_system": "HER3 on parental cell lines (BT474 and SKBR3)", "experiment": "Tz pre-treatment: cell surface HER3 and HerPBK10 binding", "format": "cell-based, human", "details": "0.5 mg/mL Tz for 24 hours", "description": "N=3. […] N=3. […] N=3. […] N=3. […] N=3. […] N=3.\nas §7\nThe parental and resistant cell lines were pretreated with Tz for 4 or 24 hours before HerDox treatment.\nas §8"}}, "note": "“Also recorded” adds a separate entry of the source."}
{"substance": "HerPBK10: receptor binding domain of heregulin fused to adenovirus penton base protein modified by a C-terminal decalysine", "values": [{"measurement": "effect on HER2+ cell survival", "setting": "MDA-MB-435 (HER2+)", "result": "had no effect on either cell line; also recorded: does not induce cell death"}, {"measurement": "effect on HER2− cell survival", "setting": "MDA-MB-231 (HER2−)", "result": "had no effect on either cell line"}, {"measurement": "effect on tumor growth", "setting": "[1]", "result": "had no effect"}, {"measurement": "cell binding in serum from HER2+ patients, HER2− patients or bovine serum", "setting": "MDA-MB-435 cells", "result": "no significant differences; also recorded: did not prevent HerPBK10 binding"}, {"measurement": "binding to immobilized HER3 after pre-adsorption with free HER3 peptide", "setting": "[2]", "result": "inhibited by pre-adsorption of HerPBK10 with free HER3 peptide"}, {"measurement": "binding to immobilized HER3 peptide", "setting": "[2]", "result": "binds to an immobilized peptide containing the extracellular domain of human HER3"}, {"measurement": "binding to HER2+ cells with pertuzumab (Pz)", "setting": "HER2+ cells", "result": "did not prevent HerPBK10 binding"}, {"measurement": "binding to HER2+ cells after pre-adsorption with free HER3 peptide", "setting": "HER2+ cells; 1× and 10× molar ratio", "result": "also inhibited HerPBK10 binding"}, {"measurement": "binding to HER2+ cells with HER4 peptide or betacellulin", "setting": "HER2+ cells; betacellulin 10 μg/mL", "result": "not inhibited"}, {"measurement": "neutralizing antibody formation against the protein", "setting": "[3]", "result": "did not yield detectable neutralizing antibody formation"}, {"measurement": "delivery to the heart, spleen, and muscle", "setting": "HER2+ tumor", "result": "nearly absent delivery"}, {"measurement": "lung delivery", "setting": "HER2+ tumor", "result": "no lung delivery"}, {"measurement": "tumor accumulation", "setting": "HER2+ tumor", "result": "equivalent levels of tumor accumulation"}, {"measurement": "time to significant endocytosis", "setting": "HER2+ MDA-MB-435 cells", "result": "≤ 45", "unit": "min"}, {"measurement": "binding to disaggregated patient tumor cells", "setting": "[4]", "result": "exhibiting greater binding than Tz; also recorded: showing greater binding than Tz"}, {"measurement": "binding to 4T1 cells with human HER3 peptide", "setting": "[5]", "result": "competitively inhibited by human HER3 peptide"}, {"measurement": "recognition of HER3 on 4T1 cells", "setting": "[5]", "result": "is recognized by HerPBK10"}, {"measurement": "effect on CDC viability", "setting": "[6]", "result": "no detectable effect on CDC viability"}, {"measurement": "HerPBK10 binding to Tz pre-treated parental cells", "setting": "[7]", "result": "augments HerPBK10 binding; also recorded: proportionately increased"}]}
